This is an account of results in paper PMC3274752 (Cancer discovery, 2011).

Data set [1] relates to SCC lines harboring DDR2 mutations. Description: Proliferation and viability of SCC lines harboring DDR2 mutations. As to conditions: for inhibition of proliferation: SCC lines harboring DDR2 mutations. The format is cell-based.
Data set [2] relates to Ba/F3 cells expressing DDR2 mutations. Description: Four-day proliferation of IL-3-independent Ba/F3 cells expressing DDR2 mutants. Type of data set: cell-based. The following applies: for killing / proliferation of DDR2-transformed Ba/F3 cells: IL-3-independent Ba/F3 cells expressing DDR2 mutations, single agent.
Data set [3] relates to Ba/F3 cells expressing DDR2 L63V. Type of data set: cell-based. As to conditions: Ba/F3 DDR2 L63V grown in 50 nM nilotinib.
Data set [4] has as its system DDR2-mutant HCC-366 cells. As to conditions: cited from earlier work.
Data set [5] deals with NCI-H2286 xenograft tumors. Nature of the data set: Xenograft of NCI-H2286 in athymic nude mice. Type of data set: in vivo. As to conditions: 50 mg/kg oral gavage, two weeks.
For data set [6] the following is noted: cited from earlier work.
The subject of a further data set is A549 cell line. Nature of the data set: Cell-Titer-Glo proliferation, six days, A549. Type of data set: cell-based. As to conditions: Homo sapiens, A549, read-out: calculated IC50, proliferation.
For data set [7], the system named is NIH-3T3 cells expressing DDR2 L63V. Nature of the data set: Soft agar colony formation, NIH-3T3 expressing DDR2 L63V. The format is cell-based. As to conditions: single application at the time of plating.
The test system of data set [8] is Ba/F3 cells, vector control grown in the presence of IL-3. Description: Four-day proliferation of control Ba/F3 cells grown in IL-3. Type of data set: cell-based. As to conditions: Mus musculus, BaF3, 96 h, read-out: mean calculated IC50 for the control.
Data set [9] deals with NCI-H1703 xenograft tumors. Description: Xenograft of NCI-H1703 in athymic nude mice. Type of data set: in vivo. The following applies: 50 mg/kg oral gavage, two weeks.
The test system of another data set is NCI-H1703 SCC cell line. The following applies: NCI-H1703, PDGFRA amplification, positive control.

Regarding `Cc1ccc(C(=O)Nc2ccc(CN3CCN(C)CC3)c(C(F)(F)F)c2)cc1C#Cc1cnc2cccnn12` [AP24534], the inhibition of proliferation entry in data set [1] is given as “inhibited the proliferation of SCC lines harboring DDR2 mutations”. Moreover, the “killing / proliferation of DDR2-transformed Ba/F3 cells” value (from here on “killing / proliferation”) in data set [2] is given as “effective in killing”.
Take `CN1CCN(CCOc2cc(OC3CCOCC3)c3c(Nc4c(Cl)ccc5c4OCO5)ncnc3c2)CC1` [AZD0530]: the “proliferation on addition of AZD0530 to 50 nM nilotinib” value in data set [3] is “marked reduction in proliferation”. Moreover, the “killing / proliferation” value in data set [2] is listed as “modest effect on the proliferation”.
Regarding `C#Cc1cccc(Nc2ncnc3cc(OCCOC)c(OCCOC)cc23)c1` [erlotinib], the GI50 in [4] (DDR2 mutant HCC-366 cell line) was 0.99 µM. For the same compound, the “sensitivity relative to dasatinib” value in [1] (HCC-366 and NCI-H2286, initial experiments, data not shown) is “at least ten-fold less than dasatinib”.
As for `Cc1cn(-c2cc(NC(=O)c3ccc(C)c(Nc4nccc(-c5cccnc5)n4)c3)cc(C(F)(F)F)c2)cn1` [nilotinib], the inhibition of proliferation entry in data set [1] was “inhibited the proliferation of SCC lines harboring DDR2 mutations”. Further, in data set [2] (50 nM, wild-type Ba/F3 cells or Ba/F3 cells expressing DDR2 mutations), the “effect on proliferation at 50 nM” value is on record as “little effect on proliferation”. Moreover, the “killing / proliferation” value in [2] is on record as “modest activity”.
For the compound `Cc1nc(Nc2ncc(C(=O)Nc3c(C)cccc3Cl)s2)cc(N2CCN(CCO)CC2)n1` [dasatinib], the tumor size result in data set [5] and in [9] was “decrease in tumor size” each time. In addition, in [4] (HCC-366), the “rank of sensitivity among 83 NSCLC cell lines” value is “most sensitive squamous cell lung cancer line to dasatinib”. Besides, in [6], the toxicity in patients result was “myelosuppression and the development of pleural and pericardial effusions”. Moreover, the IC50 in the data set with A549 cell line was 7.4 µM; in data set [8], 30 µM; in data set [2] (Mus musculus, BaF3, 96 h, read-out: mean calculated IC50 for the mutants), 0.68 µM. For the same compound, the “colony formation in soft agar” value in [7] is listed as “Colony formation could be inhibited”. For the same compound, the “cellular annexin V staining” value in data set [1] (48 hours after addition of drug, data not shown) is listed as “increase in cellular annexin V staining”. In [1] (DDR2 mutant cell lines), the “cell death versus cell cycle arrest by trypan blue exclusion” value was “cell death as opposed to cell cycle arrest”. Besides, in the data set with NCI-H1703 SCC cell line, the “sensitivity in proliferation assay” value is reported as “sensitive to both drugs”.
